Experimental data taken from patent US20190117620A1, “CHEMOTHERAPY IMPROVEMENTS” (NOXOPHARM LIMITED, priority 2016, published 2019).

Columns and labels:
[1] = system: late-stage ovarian cancer; assay: Example 2: rectal dehydroequol with intravenous carboplatin in a patient with platin- and taxane-refractory late-stage ovarian cancer; type: in vivo, human; conditions: stated objective; dehydroequol 400 mg every 12 hours rectally for 7 days + carboplatin AUC 6 iv on Day 2, every 28 days, 6 courses
Text: A patient with late-stage ovarian cancer. Previously treated intravenously with multiple rounds of carboplatin and paclitaxel and now displaying multi-drug resistance by showing disease progression while undergoing combined therapy with carboplatin/paclitaxel. This patient meets the definition of platin- and taxane-refractory disease.
The patient is showing multiple tumours throughout the abdominal cavity and is suffering failing health although still considered sufficiently robust to withstand further cytotoxic chemotherapy were it considered likely to provide a benefit.
The patient is treated with 400 mg of dehydroequol every 12 hours for 7 consecutive days. The dehydroequol is administered rectally in a solid 2 gram suppository dosage form in a theobroma oil base.
Carboplatin is injected intravenously at a dosage equivalent to an AUC of 6 on Day 2 of the 7-day dehydroequol treatment regimen.
This regimen is repeated every 28 days for a total of 6 courses of treatment.

[2] = system: castrate-resistant metastatic prostate cancer; assay: Example 3: docetaxel course, with or without rectal dehydroequol as adjuvant, in castrate-resistant metastatic prostate cancer; type: in vivo, human; conditions: stated objective; dehydroequol 400 mg once daily rectally for 7 days as adjuvant to docetaxel 175 mg/m2 iv every 21 days
Protocol: A patient with castrate-resistant metastatic prostate cancer with secondary cancers in several inguinal lymph nodes and multiple bones (thoracic vertebrae, femur, ribs, humerus). Having progressed on hormone-ablation therapy, the standard next step for this patient is to receive a course of treatment with docetaxel involving an intravenous injection of a dosage of […] over 3 hours every 21 days for 18 weeks.
Dehydroequol is administered as adjuvant therapy at a dosage of 400 mg once daily for 7 consecutive days commencing on the day prior to the administration of docetaxel and repeated for the duration of the course of docetaxel therapy. The dehydroequol is administered rectally in a solid 2 gram suppository dosage form in a theobroma oil base.

[3] = system: castrate-resistant metastatic prostate cancer; conditions: docetaxel alone, standard course; response = complete remission, partial remission or no disease progression; cited from earlier work

Structure (SMILES) | prolong the survival of the patient (additional) [1] | response rate (objective) [2] | response rate (reported) [3]
Oc1ccc(C2=Cc3ccc(O)cc3OC2)cc1 [dehydroequol, 2H-1-Benzopyran-7-0,1,3-(4-hydroxyphenyl)] | 12 months | 40-100% | –
CC(=O)O[C@@]12CO[C@@H]1C[C@H](O)[C@@]1(C)C(=O)[C@H](O)C3=C(C)[C@@H](OC(=O)[C@H](O)[C@@H](NC(=O)OC(C)(C)C)c4ccccc4)C[C@@](O)([C@@H](OC(=O)c4ccccc4)[C@H]21)C3(C)C [docetaxel] | – | – | 30%
